What was measured:
[1] = Physical stability under drying (vacuum) and 90% RH, PXRD
Experimental: The said formic acid solvate of the present invention is characterized by their X-ray powder diffraction pattern. Thus, the X-ray diffraction patterns of said polymorphs of the invention were measured on Bruker AXS D8 Discover powder X-ray diffractometer equipped with a goniometer of θ/2θ configuration, Variol monochromator and Lynx-Eye detector. The Cu-anode X-ray tube was operated at 40 kV and 30 mA. The experiments were conducted over the 2θ range of 2.0°-50.0°, 0.030° step size and 25 seconds step time.
In yet another embodiment, the physical stability of Fosamprenavir calcium Form A was determined by storing 1.0 g of sample at 50° C. and 80° C. under vacuum and at 90% relative humidity (RH). The samples are tested by PXRD after 15 hours and 72 hours. […] Transformation kinetics of Form A was studied by suspending 1 g of Form A in appropriate solvents at 25-30° C. for 15 hours. The solid samples were characterized by PXRD.

[2] = Storage stability of Form A: water content by Karl Fischer; assay type: physicochemical
Experimental: Water content was determined on Metrohm karl-Fischer titrator (Model: 794 Basic Titrino) using pyridine free single solution (Merck, Mumbai) with sample mass between 450-550 mg.

[3] = Storage stability of Form A: HPLC purity
Experimental: In yet another embodiment, physical and chemical stability of Fosamprenavir calcium Form A was determined by storing the samples at 40° C./75% relative humidity (RH), at 25° C./60% RH and at 5° C. for 6 months. The material was analyzed by PXRD, water content by Karl Fischer and HPLC for final purity.

[4] = Transformation kinetics: slurry in solvents, PXRD; assay type: physicochemical; conditions: 25-30° C., 15 h
Text: The solid samples were characterized by PXRD.

[5] = Storage stability of Form A: polymorph by PXRD; assay type: physicochemical
[6] = cited from earlier work
HIV aspartyl protease = conditions: cited from earlier work
[7] = stored for 6 months at the stress conditions of table 1

CC(C)CN(C[C@@H](OP(=O)([O-])[O-])[C@H](Cc1ccccc1)NC(=O)O[C@H]1CCOC1)S(=O)(=O)c1ccc(N)cc1.[Ca+2] [Fosamprenavir calcium Form A, Calcium (3S) tetrahydro-3-furanyl (1S,2R)-3-[[(4-aminophenyl)sulfonyl](isobutyl)amino]-1-benzyl-2-(phosphonooxy)propylcarbamate]
Change in polymorph ([1]; 50° C. and 80° C. under vacuum and 90% RH, after 15 hours and 72 hours): no change in polymorph | Result (polymorph by PXRD) ([1]; 90% RH, 15 h): Form A | Result (polymorph by PXRD) ([1]; 90% RH, 72 h): Form A | Result (polymorph by PXRD) ([1]; Drying at 50° C. under vacuum, 15 h): Form A | Result (polymorph by PXRD) ([1]; Drying at 50° C. under vacuum, 72 h): Form A | Result (polymorph by PXRD) ([1]; Drying at 80° C. under vacuum, 15 h): Form A | Result (polymorph by PXRD) ([1]; Drying at 80° C. under vacuum, 72 h): Form A | Physical stability ([1]; different stress conditions (Table 2)): physically stable | Water content (% w/w) ([2]; at 5° C., 1st Month): 3.5 % w/w | Water content (% w/w) ([2]; at 5° C., 2nd Month): 4.4 % w/w | Water content (% w/w) ([2]; at 5° C., 3rd Month): 4.0 % w/w | Water content (% w/w) ([2]; at 5° C., 6th Month): 3.5 % w/w | Water content (% w/w) ([2]; at 5° C., 15 days): 3.6 % w/w | Water content (% w/w) ([2]; at 5° C., Initial): 4.2 % w/w | Water content (% w/w) ([2]; at 25° C./60% RH, 1st Month): 3.6 % w/w | Water content (% w/w) ([2]; at 25° C./60% RH, 2nd Month): 3.7 % w/w | Water content (% w/w) ([2]; at 25° C./60% RH, 3rd Month): 3.9 % w/w | Water content (% w/w) ([2]; at 25° C./60% RH, 6th Month): 3.5 % w/w | Water content (% w/w) ([2]; at 25° C./60% RH, 15 days): 3.7 % w/w | Water content (% w/w) ([2]; at 25° C./60% RH, Initial): 4.2 % w/w | Water content (% w/w) ([2]; at 40° C./75% RH, 1st Month): 3.5 % w/w | Water content (% w/w) ([2]; at 40° C./75% RH, 2nd Month): 3.9 % w/w | Water content (% w/w) ([2]; at 40° C./75% RH, 3rd Month): 3.8 % w/w | Water content (% w/w) ([2]; at 40° C./75% RH, 6th Month): 3.0 % w/w | Water content (% w/w) ([2]; at 40° C./75% RH, 15 days): 3.5 % w/w | Water content (% w/w) ([2]; at 40° C./75% RH, Initial): 4.2 % w/w | Change in moisture content on storage [2, 7]: no substantial increase in moisture content | HPLC purity (%) ([3]; at 5° C., 1st Month): 99.85% | HPLC purity (%) ([3]; at 5° C., 2nd Month): 99.86% | HPLC purity (%) ([3]; at 5° C., 3rd Month): 99.86% | HPLC purity (%) ([3]; at 5° C., 6th Month): 99.86% | HPLC purity (%) ([3]; at 5° C., 15 days): 99.85% | HPLC purity (%) ([3]; at 5° C., Initial): 99.85% | HPLC purity (%) ([3]; at 25° C./60% RH, 1st Month): 99.85% | HPLC purity (%) ([3]; at 25° C./60% RH, 2nd Month): 99.86% | HPLC purity (%) ([3]; at 25° C./60% RH, 3rd Month): 99.87% | HPLC purity (%) ([3]; at 25° C./60% RH, 6th Month): 99.85% | HPLC purity (%) ([3]; at 25° C./60% RH, 15 days): 99.85% | HPLC purity (%) ([3]; at 25° C./60% RH, Initial): 99.85% | HPLC purity (%) ([3]; at 40° C./75% RH, 1st Month): 99.85% | HPLC purity (%) ([3]; at 40° C./75% RH, 2nd Month): 99.85% | HPLC purity (%) ([3]; at 40° C./75% RH, 3rd Month): 99.86% | HPLC purity (%) ([3]; at 40° C./75% RH, 6th Month): 99.86% | HPLC purity (%) ([3]; at 40° C./75% RH, 15 days): 99.84% | HPLC purity (%) ([3]; at 40° C./75% RH, Initial): 99.85% | Degradation on storage [3, 7]: no significant degradation | Result (polymorph by PXRD) ([4]; Slurry in IPE): Form A | Result (polymorph by PXRD) ([4]; Slurry in acetone): Form A | Result (polymorph by PXRD) ([4]; Slurry in ethyl acetate): Form A | Result (polymorph by PXRD) ([4]; Slurry in n-Heptane): Form A | PXRD ([5]; at 5° C., 1st Month): Form A | PXRD ([5]; at 5° C., 2nd Month): Form A | PXRD ([5]; at 5° C., 3rd Month): Form A | PXRD ([5]; at 5° C., 6th Month): Form A | PXRD ([5]; at 5° C., 15 days): Form A | PXRD ([5]; at 5° C., Initial): Form A | PXRD ([5]; at 25° C./60% RH, 1st Month): Form A | PXRD ([5]; at 25° C./60% RH, 2nd Month): Form A | PXRD ([5]; at 25° C./60% RH, 3rd Month): Form A | PXRD ([5]; at 25° C./60% RH, 6th Month): Form A | PXRD ([5]; at 25° C./60% RH, 15 days): Form A | PXRD ([5]; at 25° C./60% RH, Initial): Form A | PXRD ([5]; at 40° C./75% RH, 1st Month): Form A | PXRD ([5]; at 40° C./75% RH, 2nd Month): Form A | PXRD ([5]; at 40° C./75% RH, 3rd Month): Form A | PXRD ([5]; at 40° C./75% RH, 6th Month): Form A | PXRD ([5]; at 40° C./75% RH, 15 days): Form A | PXRD ([5]; at 40° C./75% RH, Initial): Form A | Change in PXRD pattern on storage [5, 7]: no change in PXRD pattern

CC(C)CN(C[C@@H](O)[C@H](Cc1ccccc1)NC(=O)O[C@H]1CCOC1)S(=O)(=O)c1ccc(N)cc1 (relative stereo) [Amprenavir, [3S-[3R*(1R*,2S*)]]-[3-[[(4-aminophenyl)sulfonyl](2-methyl-propyl)amino]-2-hydroxy-1-phenylmethyl)propyl]-tetrahydro-3-furanyl ester]
Solubility [6]: poor solubility

CC(C)CN(C[C@@H](OP(=O)([O-])[O-])[C@H](Cc1ccccc1)NC(=O)O[C@H]1CCOC1)S(=O)(=O)c1ccc(N)cc1.[Ca+2] [Fosamprenavir Calcium, Calcium (3S) tetrahydro-3-furanyl (1S,2R)-3-[[(4-aminophenyl)sulfonyl](isobutyl)amino]-1-benzyl-2-(phosphonooxy)propylcarbamate]
HIV aspartyl protease inhibitory activity (HIV aspartyl protease): has HIV aspartyl protease inhibitory activity | Solubility compared to amprenavir ([6]; pH range of the gastro-intestinal tract): increased solubility
